Source: PubChem BioAssay (NCI)
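GI50 = concentration required for 50% inhibition of growth. Definition used: TGI = concentration required for complete inhibition of growth.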

Assays:
Test in all cases: NCI tumour cell line growth inhibition, 384-well format
UO-31 renal = tested on: UO-31 renal
MDA-MB-468 breast = tested on: MDA-MB-468 breast
CAKI-1 renal = tested on: CAKI-1 renal
MDA-MB-231 breast = tested on: MDA-MB-231 breast
NCI-H460 NSCLC = tested on: NCI-H460 NSCLC
IGROV1 ovarian = tested on: IGROV1 ovarian
A498 renal = tested on: A498 renal
ACHN renal = tested on: ACHN renal
HCT-15 colon = tested on: HCT-15 colon
OVCAR-3 ovarian = tested on: OVCAR-3 ovarian
786-0 renal = tested on: 786-0 renal
DU-145 prostate = tested on: DU-145 prostate
HT29 colon = tested on: HT29 colon
MOLT-4 leukemia = tested on: MOLT-4 leukemia
SNB-19 CNS = tested on: SNB-19 CNS
SK-MEL-5 melanoma = tested on: SK-MEL-5 melanoma
OVCAR-8 ovarian = tested on: OVCAR-8 ovarian
HCT-116 colon = tested on: HCT-116 colon
SNB-75 CNS = tested on: SNB-75 CNS
HCC-2998 colon = tested on: HCC-2998 colon
A549 NSCLC = tested on: A549 NSCLC
TK-10 renal = tested on: TK-10 renal
SW-620 colon = tested on: SW-620 colon
CCRF-CEM leukemia = tested on: CCRF-CEM leukemia
HOP-92 NSCLC = tested on: HOP-92 NSCLC
NCI/ADR-RES ovarian = tested on: NCI/ADR-RES ovarian
NCI-H226 lung = tested on: NCI-H226 lung
SF-295 CNS = tested on: SF-295 CNS
NCI-H322M lung = tested on: NCI-H322M lung
COLO 205 colon = tested on: COLO 205 colon
KM12 colon = tested on: KM12 colon
HL-60(TB) leukemia = tested on: HL-60(TB) leukemia
HS 578T breast = tested on: HS 578T breast
UACC-257 melanoma = tested on: UACC-257 melanoma
HOP-62 NSCLC = tested on: HOP-62 NSCLC
NCI-H23 lung = tested on: NCI-H23 lung
SN12C renal = tested on: SN12C renal
OVCAR-4 ovarian = tested on: OVCAR-4 ovarian
M14 melanoma = tested on: M14 melanoma
U251 glioblastoma = tested on: U251 glioblastoma
MALME-3M melanoma = tested on: MALME-3M melanoma
SF-539 CNS = tested on: SF-539 CNS
RPMI-8226 leukemia = tested on: RPMI-8226 leukemia
MCF7 breast = tested on: MCF7 breast
PC-3 prostate = tested on: PC-3 prostate
SF-268 CNS = tested on: SF-268 CNS
NCI-H522 lung = tested on: NCI-H522 lung
UACC-62 melanoma = tested on: UACC-62 melanoma
RXF 393 renal = tested on: RXF 393 renal
OVCAR-5 ovarian = tested on: OVCAR-5 ovarian
BT-549 breast = tested on: BT-549 breast
SK-OV-3 ovarian = tested on: SK-OV-3 ovarian
EKVX NSCLC = tested on: EKVX NSCLC
SK-MEL-28 melanoma = tested on: SK-MEL-28 melanoma
T-47D breast = tested on: T-47D breast
MDA-MB-435 melanoma = tested on: MDA-MB-435 melanoma
LOX IMVI melanoma = tested on: LOX IMVI melanoma

Compound COc1cc2ncnc(Oc3cccc(NC(=O)Nc4cc(C(C)(C)C(F)(F)F)on4)c3)c2cc1OC has a GI50 (UO-31 renal) of 976 nM, a TGI (UO-31 renal) of 3150 nM and a GI50 (MDA-MB-468 breast) of 747 nM. For the same compound, the TGI (MDA-MB-468 breast) was 2310 nM, the GI50 (CAKI-1 renal) was 613 nM and the TGI (CAKI-1 renal) was 3600 nM. For the same compound, the GI50 (MDA-MB-231 breast) was 192 nM, the TGI (MDA-MB-231 breast) was 3980 nM and the GI50 (NCI-H460 NSCLC) was 1540 nM. It also gave a TGI (NCI-H460 NSCLC) of 4460 nM, a GI50 (IGROV1 ovarian) of 222 nM and a TGI (IGROV1 ovarian) of 1270 nM. For the same compound, the GI50 (A498 renal) was 810 nM, the TGI (A498 renal) was 5310 nM and the GI50 (ACHN renal) was 399 nM. The TGI (ACHN renal) was 2390 nM, the GI50 (HCT-15 colon) was 1860 nM and the TGI (HCT-15 colon) was 6280 nM. The GI50 (OVCAR-3 ovarian) was 1750 nM, the TGI (OVCAR-3 ovarian) was 4600 nM and the GI50 (786-0 renal) was 1520 nM. The TGI (786-0 renal) was 3770 nM, the GI50 (DU-145 prostate) was 2790 nM and the TGI (DU-145 prostate) was 11000 nM. For the same compound, the GI50 (HT29 colon) was 174 nM, the TGI (HT29 colon) was 1650 nM and the GI50 (MOLT-4 leukemia) was 1110 nM. The TGI (MOLT-4 leukemia) was 2310 nM, the GI50 (SNB-19 CNS) was 4200 nM and the TGI (SNB-19 CNS) was 14000 nM. It also gave a GI50 (SK-MEL-5 melanoma) of 206 nM, a TGI (SK-MEL-5 melanoma) of 1720 nM and a GI50 (OVCAR-8 ovarian) of 2300 nM. The TGI (OVCAR-8 ovarian) was 9640 nM, the GI50 (HCT-116 colon) was 581 nM and the TGI (HCT-116 colon) was 1970 nM. The GI50 (SNB-75 CNS) was 1860 nM, the TGI (SNB-75 CNS) was 3950 nM and the GI50 (HCC-2998 colon) was 1230 nM. For the same compound, the TGI (HCC-2998 colon) was 2570 nM, the GI50 (A549 NSCLC) was 1260 nM and the TGI (A549 NSCLC) was 5570 nM. For the same compound, the GI50 (TK-10 renal) was 1690 nM, the TGI (TK-10 renal) was 4030 nM and the GI50 (SW-620 colon) was 1180 nM. It also gave a TGI (SW-620 colon) of 3670 nM, a GI50 (CCRF-CEM leukemia) of 1450 nM and a TGI (CCRF-CEM leukemia) of 2770 nM. For the same compound, the GI50 (HOP-92 NSCLC) was 1260 nM, the TGI (HOP-92 NSCLC) was 2550 nM and the GI50 (NCI/ADR-RES ovarian) was 2030 nM. The TGI (NCI/ADR-RES ovarian) was 4780 nM, the GI50 (NCI-H226 lung) was 384 nM and the TGI (NCI-H226 lung) was 7550 nM. It also gave a GI50 (SF-295 CNS) of 2060 nM, a TGI (SF-295 CNS) of 4520 nM and a GI50 (NCI-H322M lung) of 865 nM. For the same compound, the TGI (NCI-H322M lung) was 5180 nM, the GI50 (COLO 205 colon) was 48.1 nM and the TGI (COLO 205 colon) was 1590 nM. For the same compound, the GI50 (KM12 colon) was 1920 nM, the TGI (KM12 colon) was 4430 nM and the GI50 (HL-60(TB) leukemia) was 309 nM. It also gave a TGI (HL-60(TB) leukemia) of 1750 nM, a GI50 (HS 578T breast) of 1540 nM and a TGI (HS 578T breast) of 2990 nM. For the same compound, the GI50 (UACC-257 melanoma) was 57.5 nM, the TGI (UACC-257 melanoma) was 667 nM and the GI50 (HOP-62 NSCLC) was 1530 nM. For the same compound, the TGI (HOP-62 NSCLC) was 3010 nM, the GI50 (NCI-H23 lung) was 168 nM and the TGI (NCI-H23 lung) was 1470 nM. For the same compound, the GI50 (SN12C renal) was 850 nM, the TGI (SN12C renal) was 3280 nM and the GI50 (OVCAR-4 ovarian) was 3140 nM. The TGI (OVCAR-4 ovarian) was 12400 nM, the GI50 (M14 melanoma) was 19.3 nM and the TGI (M14 melanoma) was 214 nM. It also gave a GI50 (U251 glioblastoma) of 1670 nM, a TGI (U251 glioblastoma) of 3170 nM and a GI50 (MALME-3M melanoma) of 14.6 nM. It also gave a TGI (MALME-3M melanoma) of 69.3 nM, a GI50 (SF-539 CNS) of 1350 nM and a TGI (SF-539 CNS) of 2780 nM. For the same compound, the GI50 (RPMI-8226 leukemia) was 1760 nM, the TGI (RPMI-8226 leukemia) was 3140 nM and the GI50 (MCF7 breast) was 1970 nM. For the same compound, the TGI (MCF7 breast) was 7650 nM, the GI50 (PC-3 prostate) was 2510 nM and the TGI (PC-3 prostate) was 5730 nM. It also gave a GI50 (SF-268 CNS) of 216 nM, a TGI (SF-268 CNS) of 1100 nM and a GI50 (NCI-H522 lung) of 242 nM. The TGI (NCI-H522 lung) was 1610 nM, the GI50 (UACC-62 melanoma) was 17.8 nM and the TGI (UACC-62 melanoma) was 267 nM. The GI50 (RXF 393 renal) was 1540 nM, the TGI (RXF 393 renal) was 3440 nM and the GI50 (OVCAR-5 ovarian) was 1080 nM. It also gave a TGI (OVCAR-5 ovarian) of 4570 nM, a GI50 (BT-549 breast) of 1660 nM and a TGI (BT-549 breast) of 3080 nM. The GI50 (SK-OV-3 ovarian) was 871 nM, the TGI (SK-OV-3 ovarian) was 3140 nM and the GI50 (EKVX NSCLC) was 1050 nM. The TGI (EKVX NSCLC) was 3290 nM, the GI50 (SK-MEL-28 melanoma) was 35.1 nM and the TGI (SK-MEL-28 melanoma) was 541 nM. For the same compound, the GI50 (T-47D breast) was 1110 nM, the TGI (T-47D breast) was 3440 nM and the GI50 (MDA-MB-435 melanoma) was 118 nM. The TGI (MDA-MB-435 melanoma) was 1940 nM, the GI50 (LOX IMVI melanoma) was 187 nM and the TGI (LOX IMVI melanoma) was 1020 nM.
